Test results from publication PMC10746543, “Design principles for cyclin K molecular glue degraders” (Nature Chemical Biology, 2023).
Where “and” joins values, the source holds several entries; their conditions need not be identical. Equal values may be shown once. Read-outs that look alike come from different tables or passages of the source.

Key:
CDK9–cyclin T = target: T1, CDK9–cyclin T (Homo sapiens, UniProt P50750); assay: Lanthascreen kinase binding assay, CDK9; details: for Lanthascreen TR-FRET signal (raw ratio), sheet CDK9: third titration set (r25), duplicates
T1 construct: purchased Thermo Fisher
T1 sequence (P50750 whole entry): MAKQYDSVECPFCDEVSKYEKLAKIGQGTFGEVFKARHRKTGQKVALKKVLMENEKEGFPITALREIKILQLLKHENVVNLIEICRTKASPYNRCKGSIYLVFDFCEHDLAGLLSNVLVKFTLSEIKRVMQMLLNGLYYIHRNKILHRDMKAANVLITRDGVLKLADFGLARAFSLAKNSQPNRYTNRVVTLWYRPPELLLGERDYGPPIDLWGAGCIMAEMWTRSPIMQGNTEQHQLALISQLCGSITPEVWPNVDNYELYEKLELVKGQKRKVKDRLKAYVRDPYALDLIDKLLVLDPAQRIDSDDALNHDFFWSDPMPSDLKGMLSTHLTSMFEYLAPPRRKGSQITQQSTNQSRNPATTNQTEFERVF
T1 sequence (O60563 whole entry partner): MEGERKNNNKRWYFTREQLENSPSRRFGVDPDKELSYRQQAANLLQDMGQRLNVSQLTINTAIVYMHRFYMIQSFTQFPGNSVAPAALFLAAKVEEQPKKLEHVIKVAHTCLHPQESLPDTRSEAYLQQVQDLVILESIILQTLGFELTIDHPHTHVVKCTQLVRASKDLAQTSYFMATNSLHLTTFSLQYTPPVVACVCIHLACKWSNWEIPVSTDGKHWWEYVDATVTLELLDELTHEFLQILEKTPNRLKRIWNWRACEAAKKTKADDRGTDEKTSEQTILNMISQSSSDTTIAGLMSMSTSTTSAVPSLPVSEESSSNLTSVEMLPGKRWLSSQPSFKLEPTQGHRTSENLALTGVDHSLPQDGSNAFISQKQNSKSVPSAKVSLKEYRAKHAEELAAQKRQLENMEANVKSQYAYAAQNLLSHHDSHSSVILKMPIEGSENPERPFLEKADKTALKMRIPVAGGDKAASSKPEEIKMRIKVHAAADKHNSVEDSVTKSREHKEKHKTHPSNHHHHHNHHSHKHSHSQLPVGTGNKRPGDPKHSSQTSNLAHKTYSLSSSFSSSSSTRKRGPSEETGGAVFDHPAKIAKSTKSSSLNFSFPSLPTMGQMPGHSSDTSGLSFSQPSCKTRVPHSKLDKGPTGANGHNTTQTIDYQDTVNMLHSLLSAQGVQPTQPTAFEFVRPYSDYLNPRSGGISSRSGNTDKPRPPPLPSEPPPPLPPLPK
Method: (§1) Lanthascreen experiments were performed using commercially available reagents (Thermo Fisher) and according to the manufacturer’s instructions.

CDK2–cyclin A = target: T2, CDK2–cyclin A (Homo sapiens, UniProt P24941); assay: Lanthascreen kinase binding assay, CDK2; details: for Lanthascreen signal, sheet CDK2: raw replicates, experiment r36-r46
T2 construct: purchased Thermo Fisher
Method: as §1

CDK12–cyclin K = CDK12–cyclin K (Homo sapiens, UniProt Q9NYV4); assay: Lanthascreen kinase binding assay, CDK12; details: for Lanthascreen raw signal, sheet CDK12: series r37, duplicates
Chain of CDK12–cyclin K (Q9NYV4 713-1052): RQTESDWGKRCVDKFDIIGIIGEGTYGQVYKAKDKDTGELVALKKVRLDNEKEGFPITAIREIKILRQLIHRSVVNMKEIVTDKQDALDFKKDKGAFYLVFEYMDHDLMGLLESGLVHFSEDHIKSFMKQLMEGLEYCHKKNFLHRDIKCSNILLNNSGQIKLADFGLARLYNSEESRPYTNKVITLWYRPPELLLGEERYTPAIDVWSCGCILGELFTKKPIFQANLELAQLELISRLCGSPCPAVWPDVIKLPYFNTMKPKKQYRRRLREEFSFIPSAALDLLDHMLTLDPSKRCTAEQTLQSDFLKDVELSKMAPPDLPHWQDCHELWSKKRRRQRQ
Chain of CDK12–cyclin K (O75909 1-267 partner limits assumed): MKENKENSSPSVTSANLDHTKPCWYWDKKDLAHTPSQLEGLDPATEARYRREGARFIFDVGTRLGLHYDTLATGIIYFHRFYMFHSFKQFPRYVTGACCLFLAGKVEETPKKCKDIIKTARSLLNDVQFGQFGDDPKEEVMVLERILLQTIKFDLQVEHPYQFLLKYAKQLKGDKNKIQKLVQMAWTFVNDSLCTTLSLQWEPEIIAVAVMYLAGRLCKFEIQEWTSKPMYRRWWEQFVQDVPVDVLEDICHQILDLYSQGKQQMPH
Method: as §1

[1] = system: cyclin K–eGFP degradation reporter; assay: Cyclin K reporter stability analysis (dual-color cyclin K–eGFP reporter); assay type: cell-based, human; details: source data sheet correlations; read-out: DC50
How it was run: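 First, reporter-bearing HEK293T–Cas9 cells are plated at 1 × 10^6 ml^−1. Next, drug or vehicle is added for 5 h. Finally, geometric-mean eGFP and mCherry signals of round, mCherry-positive cells are measured cytometrically, and their ratio is referenced to the DMSO average.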

CDK12–cyclin K and DDB1 = target: T3, CDK12–cyclin K and DDB1 (Homo sapiens, UniProt Q16531+Q9NYV4, K965R); assay: TR-FRET ternary complex formation assay (compound titration); assay type: binding; details: for EC50: read-out: TR-FRET EC50
T3 construct: His6–CDK12 (a.a. 713–1,052); full-length or beta-propeller B domain deletion (ΔBPB: a.a. 396–705 deleted) constructs of His6–DDB1ΔBPB, StrepII–Avi–DDB1, or His6–Spy–DDB1; made in house; host or cells: Trichoplusia ni High Five insect cells (baculovirus)
T3 sequence (Q9NYV4 713-1052 K965R): as the sequence (Q9NYV4 713-1052) above, with K253R counted along it
T3 sequence (O75909 1-267 partner): as the sequence (O75909 1-267 partner limits assumed) above
T3 sequence (Q16531 whole entry): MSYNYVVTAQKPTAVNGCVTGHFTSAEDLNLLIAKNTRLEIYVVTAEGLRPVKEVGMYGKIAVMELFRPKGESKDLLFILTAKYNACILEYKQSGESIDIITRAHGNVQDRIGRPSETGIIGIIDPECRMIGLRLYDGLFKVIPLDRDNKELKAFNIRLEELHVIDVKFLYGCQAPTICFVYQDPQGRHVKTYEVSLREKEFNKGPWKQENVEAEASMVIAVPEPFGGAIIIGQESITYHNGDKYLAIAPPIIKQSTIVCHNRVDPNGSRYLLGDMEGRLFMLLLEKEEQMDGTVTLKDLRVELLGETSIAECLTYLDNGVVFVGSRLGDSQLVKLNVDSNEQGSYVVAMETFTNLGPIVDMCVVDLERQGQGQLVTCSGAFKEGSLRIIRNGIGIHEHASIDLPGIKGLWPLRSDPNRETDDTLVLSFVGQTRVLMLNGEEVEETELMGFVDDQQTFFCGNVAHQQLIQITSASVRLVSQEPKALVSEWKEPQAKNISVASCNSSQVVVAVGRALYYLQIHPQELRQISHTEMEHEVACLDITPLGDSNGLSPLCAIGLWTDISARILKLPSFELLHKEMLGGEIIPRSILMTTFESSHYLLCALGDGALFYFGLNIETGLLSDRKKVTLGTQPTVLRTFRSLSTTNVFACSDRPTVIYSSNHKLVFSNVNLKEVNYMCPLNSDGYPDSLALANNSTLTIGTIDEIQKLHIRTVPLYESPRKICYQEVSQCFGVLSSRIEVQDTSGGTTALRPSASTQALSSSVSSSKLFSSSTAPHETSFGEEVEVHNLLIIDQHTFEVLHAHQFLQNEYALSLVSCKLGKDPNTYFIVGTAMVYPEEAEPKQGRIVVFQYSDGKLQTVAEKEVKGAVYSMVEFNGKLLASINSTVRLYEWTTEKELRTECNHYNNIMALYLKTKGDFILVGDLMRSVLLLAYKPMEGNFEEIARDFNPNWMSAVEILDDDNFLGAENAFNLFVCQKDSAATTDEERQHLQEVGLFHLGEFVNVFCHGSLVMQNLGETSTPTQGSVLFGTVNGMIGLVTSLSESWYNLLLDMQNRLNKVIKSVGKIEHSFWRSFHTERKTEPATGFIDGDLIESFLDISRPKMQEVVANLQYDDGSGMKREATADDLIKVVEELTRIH
How it was run: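 Delayed (70 μs) time-resolved read; FRET computed as 520 nm over 490 nm emission.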

HEK293T cells = assay: Drug sensitivity assay (CellTiter-Glo viability) with or without MLN4924 pretreatment; assay type: cell-based, human; details: Supplementary Table 2
How it was run: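 Viability of HEK293T–Cas9 cells was compared after 3-day drug treatment with or without 100 nM MLN4924 pretreatment (2 h, versus DMSO). Values are CellTiter-Glo signals relative to DMSO controls.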

CC(C)n1cnc2c(NCc3nc4cc(Cl)c(Cl)cc4[nH]3)nc(N3CCOCC3)nc21 [DS18]
IC50 (CDK9–cyclin T; Supplementary Table 2, read-out: Lanthascreen IC50 [nM] CDK9): 4480 nM | Lanthascreen TR-FRET signal (raw ratio), sheet CDK9 (CDK9–cyclin T; compound 0.038147 nM): 0.02012 and 0.0204 | Lanthascreen TR-FRET signal (raw ratio), sheet CDK9 (CDK9–cyclin T; compound 0.152588 nM): 0.02154 and 0.01902 | Lanthascreen TR-FRET signal (raw ratio), sheet CDK9 (CDK9–cyclin T; compound 0.610352 nM): 0.02155 and 0.01817 | Lanthascreen TR-FRET signal (raw ratio), sheet CDK9 (CDK9–cyclin T; compound 9.76563 nM): 0.02115 and 0.01877 | Lanthascreen TR-FRET signal (raw ratio), sheet CDK9 (CDK9–cyclin T; compound 39.0625 nM): 0.01878 and 0.01673 | Lanthascreen TR-FRET signal (raw ratio), sheet CDK9 (CDK9–cyclin T; compound 156.25 nM): 0.02006 and 0.01591 | Lanthascreen TR-FRET signal (raw ratio), sheet CDK9 (CDK9–cyclin T; compound 625 nM): 0.01306 and 0.01486 | Lanthascreen TR-FRET signal (raw ratio), sheet CDK9 (CDK9–cyclin T; compound 2500 nM): 0.01488 and 0.01061 | Lanthascreen TR-FRET signal (raw ratio), sheet CDK9 (CDK9–cyclin T; compound 10000 nM): 0.007693 and 0.006879 | Lanthascreen signal, sheet CDK2 (CDK2–cyclin A; Compound 0.038147 nM): 0.01344 and 0.01366 | Lanthascreen signal, sheet CDK2 (CDK2–cyclin A; Compound 0.152588 nM): 0.01349 and 0.01367 | Lanthascreen signal, sheet CDK2 (CDK2–cyclin A; Compound 0.610352 nM): 0.01404 and 0.01386 | Lanthascreen signal, sheet CDK2 (CDK2–cyclin A; Compound 9.76563 nM): 0.01422 and 0.01378 | Lanthascreen signal, sheet CDK2 (CDK2–cyclin A; Compound 39.0625 nM): 0.01396 and 0.01343 | Lanthascreen signal, sheet CDK2 (CDK2–cyclin A; Compound 156.25 nM): 0.01511 and 0.01391 | Lanthascreen signal, sheet CDK2 (CDK2–cyclin A; Compound 625 nM): 0.01354 and 0.01331 | Lanthascreen signal, sheet CDK2 (CDK2–cyclin A; Compound 2500 nM): 0.01311 and 0.01172 | Lanthascreen signal, sheet CDK2 (CDK2–cyclin A; Compound 10000 nM): 0.009843 and 0.008946 | IC50 (CDK2–cyclin A; Supplementary Table 2, read-out: Lanthascreen IC50 [nM] CDK2): 5730 nM | CDK inhibitory selectivity, result in words (CDK12–cyclin K; Lanthascreen across CDK2/9/12): CDK12 selective | IC50 (CDK12–cyclin K; Supplementary Table 2, read-out: Lanthascreen IC50 [nM] CDK12): 289 nM | Lanthascreen raw signal, sheet CDK12 (CDK12–cyclin K; compound 0.038147 nM): 0.01361 and 0.01362 | Lanthascreen raw signal, sheet CDK12 (CDK12–cyclin K; compound 0.152588 nM): 0.01347 and 0.01332 | Lanthascreen raw signal, sheet CDK12 (CDK12–cyclin K; compound 0.610352 nM): 0.0127 and 0.0128 | Lanthascreen raw signal, sheet CDK12 (CDK12–cyclin K; compound 9.76563 nM): 0.01118 and 0.01013 | Lanthascreen raw signal, sheet CDK12 (CDK12–cyclin K; compound 39.0625 nM): 0.009017 and 0.009485 | Lanthascreen raw signal, sheet CDK12 (CDK12–cyclin K; compound 156.25 nM): 0.008554 and 0.0083 | Lanthascreen raw signal, sheet CDK12 (CDK12–cyclin K; compound 625 nM): 0.007301 and 0.007453 | Lanthascreen raw signal, sheet CDK12 (CDK12–cyclin K; compound 2500 nM): 0.006348 and 0.005959 | Lanthascreen raw signal, sheet CDK12 (CDK12–cyclin K; compound 10000 nM): 0.004442 and 0.004613 | DC50 [1]: 13 nM | TR-FRET signal at compound concentration 0.468 nM (CDK12–cyclin K and DDB1; compound concentration 0.468 nM, raw replicate titration data): 0.2789 and 0.2869 and 0.2441 and 0.2388 | TR-FRET signal at compound concentration 2.16 nM (CDK12–cyclin K and DDB1; compound concentration 2.16 nM, raw replicate titration data): 0.4628 and 0.4735 and 0.4069 and 0.4155 | TR-FRET signal at compound concentration 3.6 nM (CDK12–cyclin K and DDB1; compound concentration 3.6 nM, raw replicate titration data): 0.8592 and 0.9781 and 0.8008 and 0.8631 | TR-FRET signal at compound concentration 7.92001 nM (CDK12–cyclin K and DDB1; compound concentration 7.92001 nM, raw replicate titration data): 1.943 and 2.09 and 1.796 and 1.964 | TR-FRET signal at compound concentration 15.84 nM (CDK12–cyclin K and DDB1; compound concentration 15.84 nM, raw replicate titration data): 3.635 and 3.77 and 3.448 and 3.586 | TR-FRET signal at compound concentration 30.96 nM (CDK12–cyclin K and DDB1; compound concentration 30.96 nM, raw replicate titration data): 4.1538 and 4.3056 and 4.1745 and 4.207 | TR-FRET signal at compound concentration 62.6401 nM (CDK12–cyclin K and DDB1; compound concentration 62.6401 nM, raw replicate titration data): 4.1015 and 4.249 and 4.2539 and 4.27 | TR-FRET signal at compound concentration 125.28 nM (CDK12–cyclin K and DDB1; compound concentration 125.28 nM, raw replicate titration data): 4.175 and 4.298 and 4.2336 and 4.275 | TR-FRET signal at compound concentration 244.8 nM (CDK12–cyclin K and DDB1; compound concentration 244.8 nM, raw replicate titration data): 4.152 and 4.298 and 4.309 and 4.217 | TR-FRET signal at compound concentration 993.601 nM (CDK12–cyclin K and DDB1; compound concentration 993.601 nM, raw replicate titration data): 4.169 and 4.339 and 4.296 and 4.306 | TR-FRET signal at compound concentration 2001.6 nM (CDK12–cyclin K and DDB1; compound concentration 2001.6 nM, raw replicate titration data): 4.114 and 4.419 and 4.291 and 4.3409 | EC50 (CDK12–cyclin K and DDB1; in vitro complex formation, 50 nM CDK12–cyclin K, 100 nM DDB1, text and figures): 9 ± 0.2 nM | EC50 (CDK12–cyclin K and DDB1; source data sheet correlations): 8.77 nM | EC50 (HEK293T cells; Homo sapiens, HEK-293T, HEK293T viability, 72 h, compound alone, read-out: Cellular assays EC50): 101 nM | Toxicity rescue (HEK293T cells; MLN4924-mediated cytotoxicity rescue, 10 µM used where n.d.): 89%
